Consider 9 compounds from ChEMBL document CHEMBL5154740, “Novel Aurora A and Protein Kinase C (α, β1, β2, and θ) Multitarget Inhibitors: Impact of Selenium Atoms on the Potency and Selectivity” (J Med Chem, 2022).

Experiment [1] deals with Mitogen-activated protein kinase 8 (Homo sapiens) (UniProt P45983). The experiment in a line: Inhibition of MAPK8 (unknown origin) at 50 nM by Z'LYTE screening method relative to control.
The test system of a further experiment is MDA-MB-231. The experiment in a line: Cytotoxicity against human MDA-MB-231/M cells assessed as reduction in cell viability incubated for 96 hrs by MTT assay. The class given is functional, cell-based. As to conditions: MDA-MB-231, 96 h. On the technique in general: Formazan colour is commonly taken as a measure of viable cells.
In experiment [2] the target is Tyrosine-protein kinase SYK (Homo sapiens) (UniProt P43405). Nature of the experiment: Inhibition of SYK (unknown origin) at 50 nM by Z'LYTE screening method relative to control.
The target in experiment [3] is Tyrosine-protein kinase Yes (Homo sapiens) (UniProt P07947). Nature of the experiment: Inhibition of YES1 (unknown origin) at 50 nM by Z'LYTE screening method relative to control.
Experiment [4] deals with ALK tyrosine kinase receptor (Homo sapiens) (UniProt Q9UM73). Nature of the experiment: Inhibition of ALK (unknown origin) at 50 nM by Z'LYTE screening method relative to control.
For another experiment, the system named is 4T1. Nature of the experiment: Cytotoxicity against mouse 4T1 cells assessed as reduction in cell viability incubated for 96 hrs by MTT assay. The experiment is classed as functional, cell-based. The note with it: 4T1, 96 h.
Experiment [5] has as its target T1, Serine/threonine-protein kinase D3 (Homo sapiens) (UniProt O94806).
T1 sequence (whole entry): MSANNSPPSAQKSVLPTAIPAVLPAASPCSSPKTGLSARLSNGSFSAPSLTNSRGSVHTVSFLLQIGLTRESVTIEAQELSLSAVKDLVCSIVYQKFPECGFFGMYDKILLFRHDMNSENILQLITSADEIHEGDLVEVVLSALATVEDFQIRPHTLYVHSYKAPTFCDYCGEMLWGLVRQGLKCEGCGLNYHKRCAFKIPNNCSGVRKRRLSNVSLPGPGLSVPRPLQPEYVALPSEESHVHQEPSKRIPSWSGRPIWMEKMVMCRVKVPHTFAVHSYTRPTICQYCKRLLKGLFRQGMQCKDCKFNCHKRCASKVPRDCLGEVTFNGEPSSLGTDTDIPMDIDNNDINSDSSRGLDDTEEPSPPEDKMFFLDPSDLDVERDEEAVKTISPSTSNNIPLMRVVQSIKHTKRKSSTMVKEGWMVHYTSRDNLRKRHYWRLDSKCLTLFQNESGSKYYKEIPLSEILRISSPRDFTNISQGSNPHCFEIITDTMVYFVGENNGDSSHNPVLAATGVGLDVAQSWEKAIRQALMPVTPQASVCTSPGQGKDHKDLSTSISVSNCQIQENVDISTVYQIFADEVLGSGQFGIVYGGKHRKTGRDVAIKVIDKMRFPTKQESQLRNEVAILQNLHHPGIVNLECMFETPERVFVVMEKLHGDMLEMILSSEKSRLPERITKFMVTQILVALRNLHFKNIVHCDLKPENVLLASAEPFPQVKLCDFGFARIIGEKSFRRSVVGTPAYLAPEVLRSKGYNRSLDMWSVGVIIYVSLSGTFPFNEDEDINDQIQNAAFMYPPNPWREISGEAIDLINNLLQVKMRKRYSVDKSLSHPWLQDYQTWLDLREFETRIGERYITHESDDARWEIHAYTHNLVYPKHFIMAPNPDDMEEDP
The experiment in a line: Inhibition of PKCnu (unknown origin) at 50 nM by Z'LYTE screening method relative to control.

Experiment [6] has as its target RAC-alpha serine/threonine-protein kinase (Homo sapiens) (UniProt P31749). Nature of the experiment: Inhibition of AKT1 (unknown origin) at 50 nM by Z'LYTE screening method relative to control.
Experiment [7] has as its target Serine/threonine-protein kinase mTOR (Homo sapiens) (UniProt P42345). Nature of the experiment: Inhibition of FRAP1 (unknown origin) at 50 nM by Z'LYTE screening method relative to control.
A further experiment is filed under the species Homo sapiens. Nature of the experiment: Inhibition of CDK1/Cyclin B (unknown origin) at 50 nM by Z'LYTE screening method relative to control.
The target of experiment [8] is Protein kinase C delta type (Homo sapiens) (UniProt Q05655). Nature of the experiment: Inhibition of PKCdelta (unknown origin) at 50 nM by Z'LYTE screening method relative to control.
The target in experiment [9] is DNA-dependent protein kinase catalytic subunit (Homo sapiens) (UniProt P78527). Nature of the experiment: Inhibition of DNA-PK (unknown origin) at 50 nM by Z'LYTE screening method relative to control.
DNA-dependent protein kinase catalytic subunit (Homo sapiens), sequence (P78527 whole entry): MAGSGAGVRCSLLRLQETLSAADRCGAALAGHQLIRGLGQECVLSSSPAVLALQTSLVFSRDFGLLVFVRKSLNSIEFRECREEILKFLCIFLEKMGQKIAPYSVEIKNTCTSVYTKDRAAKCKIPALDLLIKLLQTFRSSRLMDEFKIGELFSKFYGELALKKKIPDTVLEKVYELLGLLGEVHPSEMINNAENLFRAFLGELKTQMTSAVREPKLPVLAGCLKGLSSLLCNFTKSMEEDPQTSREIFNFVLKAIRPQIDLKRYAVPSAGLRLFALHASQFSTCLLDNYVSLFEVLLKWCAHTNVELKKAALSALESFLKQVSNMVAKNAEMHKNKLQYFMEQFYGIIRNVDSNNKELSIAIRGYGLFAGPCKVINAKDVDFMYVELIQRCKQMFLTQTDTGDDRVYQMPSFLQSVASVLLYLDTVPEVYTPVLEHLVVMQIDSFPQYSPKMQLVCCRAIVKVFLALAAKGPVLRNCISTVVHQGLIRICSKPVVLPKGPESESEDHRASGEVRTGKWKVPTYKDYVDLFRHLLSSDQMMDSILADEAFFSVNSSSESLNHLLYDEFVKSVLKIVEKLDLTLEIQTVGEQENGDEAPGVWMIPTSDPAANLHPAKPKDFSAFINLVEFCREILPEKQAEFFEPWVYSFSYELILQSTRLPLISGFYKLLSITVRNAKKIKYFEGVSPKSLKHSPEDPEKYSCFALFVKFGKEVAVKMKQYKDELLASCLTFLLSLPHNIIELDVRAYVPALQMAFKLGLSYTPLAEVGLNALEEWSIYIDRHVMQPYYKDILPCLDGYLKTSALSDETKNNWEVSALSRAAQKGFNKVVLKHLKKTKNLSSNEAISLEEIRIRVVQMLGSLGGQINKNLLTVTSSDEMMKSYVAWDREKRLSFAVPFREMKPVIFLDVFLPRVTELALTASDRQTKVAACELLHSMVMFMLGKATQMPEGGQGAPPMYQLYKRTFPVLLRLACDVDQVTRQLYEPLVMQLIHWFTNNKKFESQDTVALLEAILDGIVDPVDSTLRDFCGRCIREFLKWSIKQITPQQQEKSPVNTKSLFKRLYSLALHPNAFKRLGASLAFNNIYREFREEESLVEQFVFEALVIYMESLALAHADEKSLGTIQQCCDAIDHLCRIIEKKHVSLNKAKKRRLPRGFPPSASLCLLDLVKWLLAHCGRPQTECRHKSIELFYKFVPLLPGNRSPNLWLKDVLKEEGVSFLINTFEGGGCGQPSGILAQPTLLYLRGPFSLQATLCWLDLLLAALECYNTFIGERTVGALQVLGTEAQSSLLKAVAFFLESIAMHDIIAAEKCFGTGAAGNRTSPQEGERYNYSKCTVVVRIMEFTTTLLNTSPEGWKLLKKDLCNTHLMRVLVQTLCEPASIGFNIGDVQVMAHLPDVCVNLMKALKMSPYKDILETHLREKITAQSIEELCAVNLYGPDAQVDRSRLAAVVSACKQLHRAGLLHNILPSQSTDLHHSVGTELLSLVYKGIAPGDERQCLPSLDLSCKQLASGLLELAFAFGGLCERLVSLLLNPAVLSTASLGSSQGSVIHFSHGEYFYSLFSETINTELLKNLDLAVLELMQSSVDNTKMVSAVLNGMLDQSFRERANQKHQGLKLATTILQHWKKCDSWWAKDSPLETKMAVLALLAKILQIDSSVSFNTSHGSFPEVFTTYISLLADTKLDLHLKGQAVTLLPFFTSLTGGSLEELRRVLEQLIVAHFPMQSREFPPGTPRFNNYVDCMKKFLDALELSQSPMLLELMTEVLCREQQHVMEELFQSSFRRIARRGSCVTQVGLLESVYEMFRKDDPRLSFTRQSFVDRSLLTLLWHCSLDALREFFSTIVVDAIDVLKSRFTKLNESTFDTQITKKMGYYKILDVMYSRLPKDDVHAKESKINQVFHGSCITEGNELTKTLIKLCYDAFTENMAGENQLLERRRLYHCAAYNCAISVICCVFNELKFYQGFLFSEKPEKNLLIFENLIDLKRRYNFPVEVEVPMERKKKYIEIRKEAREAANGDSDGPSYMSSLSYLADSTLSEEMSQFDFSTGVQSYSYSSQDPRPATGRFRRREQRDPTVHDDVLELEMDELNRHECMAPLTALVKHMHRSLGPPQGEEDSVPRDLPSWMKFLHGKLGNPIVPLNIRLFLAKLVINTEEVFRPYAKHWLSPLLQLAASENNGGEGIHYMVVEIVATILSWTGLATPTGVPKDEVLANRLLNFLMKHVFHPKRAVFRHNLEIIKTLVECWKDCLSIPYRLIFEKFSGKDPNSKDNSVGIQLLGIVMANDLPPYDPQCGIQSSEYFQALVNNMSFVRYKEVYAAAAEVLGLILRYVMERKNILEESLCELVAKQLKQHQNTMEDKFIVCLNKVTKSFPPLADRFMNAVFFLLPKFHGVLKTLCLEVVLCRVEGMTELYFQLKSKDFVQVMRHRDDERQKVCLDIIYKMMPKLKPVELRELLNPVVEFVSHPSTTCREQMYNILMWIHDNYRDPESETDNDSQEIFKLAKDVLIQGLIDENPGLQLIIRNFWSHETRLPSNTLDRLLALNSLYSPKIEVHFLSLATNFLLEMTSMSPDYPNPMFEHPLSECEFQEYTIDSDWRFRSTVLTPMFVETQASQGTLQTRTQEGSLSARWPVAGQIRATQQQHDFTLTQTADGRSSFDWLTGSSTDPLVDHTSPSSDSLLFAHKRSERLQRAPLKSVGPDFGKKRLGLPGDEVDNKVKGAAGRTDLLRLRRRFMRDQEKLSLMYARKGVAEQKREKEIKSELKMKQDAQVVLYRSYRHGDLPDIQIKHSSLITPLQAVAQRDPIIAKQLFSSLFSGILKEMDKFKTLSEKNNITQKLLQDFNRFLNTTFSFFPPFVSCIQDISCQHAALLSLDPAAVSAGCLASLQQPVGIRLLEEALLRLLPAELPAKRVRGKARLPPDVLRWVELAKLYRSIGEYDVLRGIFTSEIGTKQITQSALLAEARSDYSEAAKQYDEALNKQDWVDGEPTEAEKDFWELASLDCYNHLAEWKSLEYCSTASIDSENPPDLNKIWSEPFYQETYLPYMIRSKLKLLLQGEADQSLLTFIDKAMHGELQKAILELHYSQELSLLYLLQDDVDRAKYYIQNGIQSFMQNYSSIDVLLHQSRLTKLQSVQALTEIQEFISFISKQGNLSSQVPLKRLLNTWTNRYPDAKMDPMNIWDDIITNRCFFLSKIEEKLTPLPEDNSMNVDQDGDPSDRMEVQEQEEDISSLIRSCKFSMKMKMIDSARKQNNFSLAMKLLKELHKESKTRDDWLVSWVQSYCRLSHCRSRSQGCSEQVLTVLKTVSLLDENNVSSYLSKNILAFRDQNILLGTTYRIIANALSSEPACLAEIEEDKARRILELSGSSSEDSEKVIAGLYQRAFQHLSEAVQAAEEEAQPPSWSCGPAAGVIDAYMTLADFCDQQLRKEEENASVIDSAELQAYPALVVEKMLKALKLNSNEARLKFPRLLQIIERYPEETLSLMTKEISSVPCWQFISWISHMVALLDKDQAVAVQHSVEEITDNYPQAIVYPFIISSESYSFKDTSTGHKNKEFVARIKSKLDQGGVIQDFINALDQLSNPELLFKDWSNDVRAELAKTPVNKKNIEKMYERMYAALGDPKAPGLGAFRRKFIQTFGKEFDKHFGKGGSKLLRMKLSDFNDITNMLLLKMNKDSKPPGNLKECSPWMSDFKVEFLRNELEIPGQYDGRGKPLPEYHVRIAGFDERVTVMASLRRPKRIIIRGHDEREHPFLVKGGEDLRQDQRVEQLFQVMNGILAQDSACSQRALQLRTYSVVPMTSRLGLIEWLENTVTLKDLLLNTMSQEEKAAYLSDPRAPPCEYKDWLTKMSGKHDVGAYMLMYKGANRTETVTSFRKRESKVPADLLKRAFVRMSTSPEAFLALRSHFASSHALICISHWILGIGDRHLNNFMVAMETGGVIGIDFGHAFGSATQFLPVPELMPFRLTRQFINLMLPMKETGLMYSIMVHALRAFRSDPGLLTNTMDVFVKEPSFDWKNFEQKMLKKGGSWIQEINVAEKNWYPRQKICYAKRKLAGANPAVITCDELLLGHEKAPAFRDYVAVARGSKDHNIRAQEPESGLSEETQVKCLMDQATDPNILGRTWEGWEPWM
Experiment [10] addresses Ribosomal protein S6 kinase alpha-1 (Homo sapiens) (UniProt Q15418). The experiment in a line: Inhibition of RPS6KA1 (unknown origin) at 50 nM by Z'LYTE screening method relative to control.
Experiment [11] deals with Aurora kinase B (Homo sapiens) (UniProt Q96GD4). The experiment in a line: Inhibition of AURB (unknown origin) at 50 nM by Z'LYTE screening method relative to control.
Aurora kinase B (Homo sapiens), sequence (Q96GD4 whole entry): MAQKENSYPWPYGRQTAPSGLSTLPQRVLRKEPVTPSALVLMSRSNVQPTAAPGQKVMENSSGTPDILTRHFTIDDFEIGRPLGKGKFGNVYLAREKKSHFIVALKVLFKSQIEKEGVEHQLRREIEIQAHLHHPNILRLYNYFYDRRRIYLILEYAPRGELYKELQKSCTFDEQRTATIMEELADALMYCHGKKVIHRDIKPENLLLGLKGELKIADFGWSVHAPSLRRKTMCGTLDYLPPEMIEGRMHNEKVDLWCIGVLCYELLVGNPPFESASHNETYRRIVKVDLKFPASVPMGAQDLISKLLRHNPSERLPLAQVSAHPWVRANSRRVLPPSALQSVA
In experiment [12] the target is Hepatocyte growth factor receptor (Homo sapiens) (UniProt P08581). The experiment in a line: Inhibition of cMet (unknown origin) at 50 nM by Z'LYTE screening method relative to control.
The target in experiment [13] is Protein kinase C beta type (Homo sapiens) (UniProt P05771). Nature of the experiment: Inhibition of PKCbeta2 (unknown origin) at 50 nM by Z'LYTE screening method relative to control.
Protein kinase C beta type (Homo sapiens), sequence (P05771 2-671 limits assumed): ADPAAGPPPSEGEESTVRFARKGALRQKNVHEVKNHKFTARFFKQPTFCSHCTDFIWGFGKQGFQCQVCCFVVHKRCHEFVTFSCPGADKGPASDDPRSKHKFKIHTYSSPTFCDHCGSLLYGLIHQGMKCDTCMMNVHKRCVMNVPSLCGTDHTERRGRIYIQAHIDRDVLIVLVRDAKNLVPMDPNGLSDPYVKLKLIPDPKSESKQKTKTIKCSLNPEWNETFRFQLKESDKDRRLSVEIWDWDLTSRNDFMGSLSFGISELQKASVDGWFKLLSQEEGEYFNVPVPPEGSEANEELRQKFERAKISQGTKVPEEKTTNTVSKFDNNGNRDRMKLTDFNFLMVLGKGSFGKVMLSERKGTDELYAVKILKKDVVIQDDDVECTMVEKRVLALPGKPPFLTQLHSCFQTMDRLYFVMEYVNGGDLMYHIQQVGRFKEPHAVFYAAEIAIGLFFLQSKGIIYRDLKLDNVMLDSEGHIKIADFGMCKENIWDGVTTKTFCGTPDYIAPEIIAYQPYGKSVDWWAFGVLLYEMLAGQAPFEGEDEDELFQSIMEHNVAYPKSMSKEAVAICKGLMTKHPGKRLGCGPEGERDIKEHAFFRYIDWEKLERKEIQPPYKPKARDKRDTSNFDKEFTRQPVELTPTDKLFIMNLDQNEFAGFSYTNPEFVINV
The target in experiment [14] is Proto-oncogene tyrosine-protein kinase Src (Homo sapiens) (UniProt P12931). Nature of the experiment: Inhibition of SRC (unknown origin) at 50 nM by Z'LYTE screening method relative to control.

As usually defined, the inhibition is the drop in the measured response relative to a control, in per cent. Low readings indicate little suppression, high ones strong suppression. Broadly, the IC50 is the midpoint of a concentration-inhibition curve.

As for `CCN(CC)CCCC(C)Nc1nc(-n2[se]c3ccccc3c2=O)nc2[nH]cnc12` (stereo not drawn), the inhibition in experiment [1] was found to be 0%; in [2], 4%; in experiment [3], 15%; in experiment [4], 2%; in experiment [5] it was 11%; in [6], 9%. In addition, the inhibition in [7] came out at 2%; in the experiment listed under Homo sapiens it was 0%; in experiment [8] it was 6%; in experiment [9] it was 0%; in experiment [10], 0%; in experiment [11], 6%. The inhibition in [12] was found to be 14%; in experiment [13], 12%; in experiment [14], 0%. The IC50 in the experiment on MDA-MB-231 was 16.8 µM; in the experiment with 4T1, 15.2 µM.
With `O=c1c2ccccc2[se]n1-c1nc(NC2CCCCC2)c2nc[nH]c2n1`, the inhibition in experiment [1] was determined as 0%; in [2], 5%; in experiment [3] it was 38%; in experiment [4], 1%; in [5] it was 0%; in experiment [6], 2%. The inhibition in experiment [7] amounted to 0%; in the experiment filed under Homo sapiens, 0%; in experiment [8] it was 0%; in [9], 0%; in [10], 2%; in experiment [11] it was 7%. Moreover, the results for the inhibition in experiment [12], in experiment [13] and in experiment [14] were 0%, 62% and 3%, respectively. Also, the IC50 in the experiment with MDA-MB-231 is 10.2 µM; with 4T1, 8.1 µM.
Consider `CCN(CC)CCCC(C)Nc1nc(N2Cc3ccccc3C2=O)nc2[nH]cnc12` (stereo not drawn), for which the inhibition in [1] was 0%; in experiment [2] it was 2%; in [3], 9%; in experiment [4], 0%; in [5], 2%; in [6] it was 2%. The inhibition in [7] was 0%; in the experiment filed under Homo sapiens it was 1%; in experiment [8] it was 0%; in experiment [9], 0%; in [10], 0%; in [11] it was 5%. Also, the inhibition turned out to be 2% in experiment [12], 25% in experiment [13] and 0% in experiment [14]. The IC50 was determined as 22.1 µM in the experiment on MDA-MB-231 and 13.3 µM with 4T1.
In the case of `O=C1c2ccccc2CN1c1nc(N[C@H]2CC[Se]C2)c2nc[nH]c2n1`, the inhibition stood at 0% in [1]; 1% in experiment [2]; 12% in [3]; 0% in experiment [4]; 3% in [5]; 1% in [6]. Further, the inhibition in [7] is 2%; in the experiment filed under Homo sapiens, 0%; in experiment [8] it was 0%; in experiment [9], 0%; in [10], 0%; in experiment [11], 9%. Also, the inhibition in experiment [12] was 0%; in [13], 9%; in experiment [14] it was 0%. The IC50 amounted to 26.1 µM in the experiment on MDA-MB-231 and 27.2 µM in the experiment with 4T1.
Take `O=c1c2ccccc2[se]n1-c1nc(N[C@H]2CC[Se]C2)c2nc[nH]c2n1`: the inhibition in [1] is 0%; in [2], 0%; in [3] it was 10%; in [4] it was 0%; in experiment [5], 6%; in experiment [6], 0%. Also, the inhibition stood at 0% in [7]; 0% in the experiment listed under Homo sapiens; 0% in experiment [8]; 0% in experiment [9]; 5% in experiment [10]; 0% in experiment [11]. For the same compound, the figures for the inhibition in experiment [12], in experiment [13] and in [14] were 0%, 8% and 0%, respectively. In addition, the IC50 turned out to be 1.2 µM in the experiment with MDA-MB-231 and 0.8 µM in the experiment on 4T1.
`O=c1c2ccccc2[se]n1-c1nc(N[C@@H]2C[C@H]3CC[C@@H]2C3)c2nc[nH]c2n1`: the inhibition in [1] is 0%; in experiment [2] it was 3%; in [3], 9%; in experiment [4], 0%; in [5], 1%; in experiment [6], 0%. Moreover, the inhibition in experiment [7] was 0%; in the experiment listed under Homo sapiens, 0%; in [8], 0%; in [9] it was 0%; in experiment [10] it was 0%; in experiment [11], 4%. Further, the inhibition in [12] came to 1%; in experiment [13] it was 62%; in experiment [14] it was 2%. The IC50 in the experiment with MDA-MB-231 was 32.4 µM; in the experiment with 4T1, 31.8 µM.
As for `O=c1c2ccccc2[se]n1-c1nc(N[C@H]2CCOC2)c2nc[nH]c2n1`, the inhibition in experiment [1] is 0%; in [2], 2%; in experiment [3], 6%; in [4], 1%; in [5], 3%; in experiment [6], 1%. The inhibition in experiment [7] is 1%; in the experiment filed under Homo sapiens it was 1%; in [8], 0%; in [9], 0%; in [10], 5%; in experiment [11], 0%. The inhibition amounted to 0% in [12], 7% in [13] and 3% in [14]. Moreover, the IC50 in the experiment on MDA-MB-231 amounted to 2.3 µM; in the experiment on 4T1 it was 1.8 µM.
As to `C[C@@H]1[C@H]2C[C@@H](C[C@H]1Nc1nc(-n3[se]c4ccccc4c3=O)nc3[nH]cnc13)C2(C)C`, the inhibition in experiment [1] is 0%; in experiment [2], 1%; in experiment [3], 7%; in [4], 1%; in experiment [5], 1%; in experiment [6] it was 0%. The inhibition in [7] was 1%; in the experiment filed under Homo sapiens, 1%; in experiment [8], 0%; in experiment [9], 0%; in [10], 0%; in experiment [11], 6%. Moreover, the inhibition amounted to 1% in experiment [12], 5% in experiment [13] and 0% in experiment [14]. The half-maximal inhibitory concentration (IC50) in the experiment on MDA-MB-231 came to 47.7 µM; with 4T1, 33.6 µM.
`O=C1c2ccccc2CN1c1nc(NC2CCCC2)c2nc[nH]c2n1`: the inhibition is 0% in experiment [1]; 1% in experiment [2]; 1% in experiment [3]; 2% in [4]; 4% in experiment [5]; 1% in experiment [6]. Further, the inhibition in experiment [7] was 2%; in the experiment listed under Homo sapiens it was 0%; in experiment [8], 0%; in experiment [9] it was 0%; in experiment [10] it was 1%; in [11], 1%. In addition, the inhibition turned out to be 0% in experiment [12], 9% in [13] and 0% in [14]. For the same compound, the IC50 is 24.7 µM in the experiment with MDA-MB-231 and 16.7 µM in the experiment with 4T1.
